≈ marks a conversion by molar mass, not a printed value.
Legend:
Experiment in all cases: ≥ marks a high value that may be exact or a test limit, other limits are often not marked, values filed in µg/mL are converted to µM
Enterobacter cloacae = system: Enterobacter cloacae
[1] = system: Escherichia coli ATCC 25922
[2] = system: Escherichia coli ATCC 35218
Escherichia coli UTI89 = system: Escherichia coli UTI89
[3] = system: Klebsiella pneumoniae ATCC 700603
[4] = system: Klebsiella pneumoniae NDM-1
Klebsiella pneumoniae = system: Klebsiella pneumoniae
[5] = system: Pseudomonas aeruginosa ATCC 27853
[6] = system: Pseudomonas aeruginosa PAO1
Vibrio cholerae = system: Vibrio cholerae
[7] = system: Listeria monocytogenes EGD
[8] = system: Candida albicans ATCC 2002
[9] = system: Candida albicans ATCC 90028
[10] = system: Candida parapsilosis ATCC 22019
[11] = system: Enterobacter cloacae ATCC 13047
[12] = system: Enterococcus faecalis ATCC 29212
Escherichia coli 37 = system: Escherichia coli 37
[13] = system: Pseudomonas aeruginosa CMCCB 1010
Pseudomonas aeruginosa = system: Pseudomonas aeruginosa
Shigella dysenteriae = system: Shigella dysenteriae
Staphylococcus aureus 37 = system: Staphylococcus aureus 37
[14] = system: Staphylococcus aureus ATCC 25923
Acinetobacter baumannii = system: Acinetobacter baumannii
[15] = system: Bacillus cereus CGMCC 1.932
[16] = system: Bacillus subtilis CMCC 63501
Escherichia coli 078 = system: Escherichia coli 078
Escherichia coli K88 = system: Escherichia coli K88
Escherichia coli K99 = system: Escherichia coli K99
Escherichia coli UB1005 = system: Escherichia coli UB1005
[17] = system: Listeria monocytogenes CGMCC 1.1075
[18] = system: Salmonella enterica subsp. enterica serovar Pullorum ATCC 7913
[19] = system: Salmonella enterica subsp. enterica serovar Typhimurium ATCC 14028
[20] = system: Salmonella typhimurium ATCC 7731
[21] = system: Staphylococcus aureus ATCC 43300
[22] = system: Staphylococcus epidermidis ATCC 12228
Escherichia coli K-12 = system: Escherichia coli K-12
[23] = system: Pseudomonas aeruginosa PA214
[24] = system: Acinetobacter baumannii ATCC 19606
[25] = system: Acinetobacter baumannii ATCC BAA-1605
[26] = system: Acinetobacter baumannii CR17
[27] = system: Enterococcus faecium ATCC 700221
[28] = system: Staphylococcus aureus ATCC 33591
[29] = system: Escherichia coli BW25113 ΔsbmA
Escherichia coli BW25113 = system: Escherichia coli BW25113
Escherichia coli = system: Escherichia coli

Structure (SMILES): CC[C@H](C)[C@H](NC(=O)[C@@H](NC(=O)[C@@H]1CCCN1C(=O)[C@H](CO)NC(=O)[C@H](CC(C)C)NC(=O)[C@H](CCCCN)NC(=O)[C@H](CCCCN)NC(=O)[C@H](Cc1ccccc1)NC(=O)[C@H](CC(C)C)NC(=O)[C@H](CCCCN)NC(=O)[C@H](CCCCN)NC(=O)[C@H](CC(C)C)NC(=O)[C@H](CCCCN)NC(=O)[C@H](CCCCN)NC(=O)[C@H](CCCN=C(N)N)NC(=O)[C@H](Cc1ccccc1)NC(=O)[C@H](CCCN=C(N)N)NC(=O)[C@H](CCCCN)NC(=O)[C@H](Cc1ccccc1)NC(=O)[C@H](CCCN=C(N)N)NC(=O)CN)C(C)C)C(=O)N1CCC[C@H]1C(=O)N[C@@H](CC(C)C)C(=O)N[C@@H](CC(C)C)C(=O)N[C@@H](Cc1cnc[nH]1)C(=O)N[C@@H](CC(C)C)C(=O)NCC(=O)O [GRFKRFRKKLKKLFKKLSPVIPLLHLG]
- MIC (Enterobacter cloacae): 4 µM (≈ 13 µg/mL)
- MIC [1]: 4 µM (≈ 13 µg/mL)
- MIC [2]: 4 µM (≈ 13 µg/mL)
- MIC (Escherichia coli UTI89): 4 µM (≈ 13 µg/mL)
- MIC [3]: 4 µM (≈ 13 µg/mL)
- MIC [4]: 4 µM (≈ 13 µg/mL)
- MIC (Klebsiella pneumoniae): 5.66 µM (≈ 18.4 µg/mL)
- MIC [5]: 4 µM (≈ 13 µg/mL)
- MIC [6]: 4 µM (≈ 13 µg/mL)
- MIC (Vibrio cholerae): 2.83 µM (≈ 9.19 µg/mL)

Structure (SMILES): CC[C@H](C)[C@H](NC(=O)[C@H](Cc1cnc[nH]1)NC(=O)[C@@H](NC(=O)[C@H](CCCN=C(N)N)NC(=O)[C@H](CCCCN)NC(=O)[C@H](CCCN=C(N)N)NC(=O)[C@H](CCCCN)NC(=O)[C@H](CC(N)=O)NC(=O)[C@H](Cc1ccc(O)cc1)NC(=O)[C@H](CC(N)=O)NC(=O)[C@@H]1CCCN1C(=O)[C@H](CCCN=C(N)N)NC(=O)[C@@H](NC(=O)[C@@H](N)CS)[C@@H](C)O)[C@@H](C)CC)C(=O)NCC(=O)O [CTRPNYNKRKRIHIG]
- MIC [7]: 5.76 µM (≈ 10.7 µg/mL)

Structure (SMILES): CC[C@H](C)[C@H](NC(=O)[C@@H](NC(=O)[C@@H]1CCCN1C(=O)[C@H](CC(C)C)NC(=O)[C@@H](N)Cc1ccccc1)[C@@H](C)CC)C(=O)NCC(=O)N[C@@H](CCCCN)C(=O)N[C@@H](CC(C)C)C(=O)N[C@@H](CC(C)C)C(=O)N[C@@H](CO)C(=O)NCC(=O)N[C@@H](CC(C)C)C(=O)N[C@@H](CC(C)C)C(=O)O [FLPIIGKLLSGLL]
- MIC [8]: 7.23 µM (≈ 10 µg/mL)
- MIC [9]: 7.23 µM (≈ 10 µg/mL)
- MIC [10]: 1.81 µM (≈ 2.5 µg/mL)
- MIC [11]: 1.81 µM (≈ 2.5 µg/mL)
- MIC [12]: 3.61 µM (≈ 5 µg/mL)
- MIC (Escherichia coli 37): 14.5 µM (≈ 20 µg/mL)
- MIC [1]: 1.81 µM (≈ 2.5 µg/mL)
- MIC [3]: 7.23 µM (≈ 10 µg/mL)
- MIC (Klebsiella pneumoniae): 28.9 µM (≈ 40 µg/mL)
- MIC [5]: 28.9 µM (≈ 40 µg/mL)
- MIC [13]: 7.23 µM (≈ 10 µg/mL)
- MIC (Pseudomonas aeruginosa): 3.61 µM (≈ 5 µg/mL)
- MIC (Shigella dysenteriae): 14.5 µM (≈ 20 µg/mL)
- MIC (Staphylococcus aureus 37): 3.61 µM (≈ 5 µg/mL)
- MIC [14]: 0.867 µM (≈ 1.2 µg/mL)

Structure (SMILES): NC(=O)[C@H](Cc1ccccc1)NC(=O)[C@H](CCCN=C(N)N)NC(=O)[C@H](Cc1c[nH]c2ccccc12)NC(=O)[C@H](CCCN=C(N)N)NC(=O)[C@H](Cc1c[nH]c2ccccc12)NC(=O)[C@H](Cc1c[nH]c2ccccc12)NC(=O)[C@H](Cc1c[nH]c2ccccc12)NC(=O)[C@H](CCCN=C(N)N)NC(=O)[C@H](Cc1c[nH]c2ccccc12)NC(=O)[C@@H](N)CCCN=C(N)N [RWRWWWRWRF]
- MIC (Acinetobacter baumannii): 2 µM (≈ 3.44 µg/mL)
- MIC [15]: 8 µM (≈ 13.8 µg/mL)
- MIC [16]: 2 µM (≈ 3.44 µg/mL)
- MIC [12]: 4 µM (≈ 6.88 µg/mL)
- MIC (Escherichia coli 078): 4 µM (≈ 6.88 µg/mL)
- MIC (Escherichia coli K88): 4 µM (≈ 6.88 µg/mL)
- MIC (Escherichia coli K99): 4 µM (≈ 6.88 µg/mL)
- MIC (Escherichia coli UB1005): 8 µM (≈ 13.8 µg/mL)
- MIC [17]: 1 µM (≈ 1.72 µg/mL)
- MIC [5]: 16 µM (≈ 27.5 µg/mL)
- MIC [6]: 4 µM (≈ 6.88 µg/mL)
- MIC [18]: 8 µM (≈ 13.8 µg/mL)
- MIC [19]: 8 µM (≈ 13.8 µg/mL)
- MIC [20]: 4 µM (≈ 6.88 µg/mL)
- MIC [14]: 2 µM (≈ 3.44 µg/mL)
- MIC [21]: 2 µM (≈ 3.44 µg/mL)
- MIC [22]: 2 µM (≈ 3.44 µg/mL)

Structure (SMILES): C[C@H](NC(=O)[C@H](C)NC(=O)[C@H](CCCCN)NC(=O)[C@H](Cc1ccccc1)NC(=O)[C@H](C)NC(=O)[C@H](CCCCN)NC(=O)[C@H](C)NC(=O)[C@H](Cc1c[nH]c2ccccc12)NC(=O)[C@H](C)NC(=O)[C@H](CCCCN)NC(=O)[C@H](C)NC(=O)[C@H](Cc1ccccc1)NC(=O)[C@H](CCCCN)NC(=O)[C@H](CCCCN)NC(=O)[C@H](C)NC(=O)[C@H](C)NC(=O)[C@@H](N)CCCCN)C(N)=O [KAAKKFAKAWAKAFKAA]
- MIC (Escherichia coli K-12): 12.5 µM (≈ 22.9 µg/mL)
- MIC [23]: ≥ 50 µM
- MIC [6]: 50 µM (≈ 91.8 µg/mL)

Structure (SMILES): CC[C@H](C)[C@H](NC(=O)[C@H](CCCCN)NC(=O)[C@H](CCCCN)NC(=O)[C@H](Cc1ccccc1)NC(=O)[C@H](CC(C)C)NC(=O)[C@H](CCCCN)NC(=O)[C@@H](N)CCCCN)C(=O)N[C@@H](CC(C)C)C(=O)N[C@@H](CCCN=C(N)N)C(=O)N[C@@H](Cc1ccc(O)cc1)C(=O)N[C@@H](CC(C)C)C(N)=O [KKLFKKILRYL]
- MIC [24]: 5.86 µM (≈ 8.49 µg/mL)
- MIC [25]: 2.76 µM (≈ 4 µg/mL)
- MIC [26]: ≥ 32.7 µM
- MIC [27]: 5.86 µM (≈ 8.49 µg/mL)
- MIC [1]: 5.86 µM (≈ 8.49 µg/mL)
- MIC [3]: 5.86 µM (≈ 8.49 µg/mL)
- MIC [5]: 11.7 µM (≈ 17 µg/mL)
- MIC [28]: 23.1 µM (≈ 33.5 µg/mL)

Structure (SMILES): CC[C@H](C)[C@H](NC(=O)[C@@H]1CCCN1C(=O)[C@@H]1CCCN1C(=O)[C@H](CCCN=C(N)N)NC(=O)[C@H](Cc1ccccc1)NC(=O)[C@@H](N)CCCN=C(N)N)C(=O)N[C@@H](CCCN=C(N)N)C(=O)N[C@@H](CCCN=C(N)N)C(=O)N1CCC[C@H]1C(=O)N1CCC[C@H]1C(=O)N[C@H](C(=O)N[C@@H](CCCN=C(N)N)C(=O)N1CCC[C@H]1C(=O)N1CCC[C@H]1C(=O)N[C@@H](Cc1ccccc1)C(=O)N[C@@H](Cc1ccc(O)cc1)C(=O)N[C@@H](CCCN=C(N)N)C(=O)O)[C@@H](C)CC [RFRPPIRRPPIRPPFYR]
- MIC [24]: 64 µM (≈ 142 µg/mL)
- MIC [29]: ≥ 64 µM
- MIC (Escherichia coli BW25113): 8 µM (≈ 17.8 µg/mL)
- MIC (Escherichia coli): 4 µM (≈ 8.89 µg/mL)
- MIC [3]: > 64 µM
- MIC [5]: > 64 µM
- MIC [14]: > 64 µM
